Laboratory results reported in US20050014824A1, “Pigment” (priority 2001, published 2005).

Columns and labels:
[1] = system: enzymes from salmon intestines; assay: hydrolysis of astaxanthin omega-3 fatty acid diester by enzyme mixture from salmon intestines, optical isomer distribution by HPLC of dicamphanates; assay type: in vitro ADME, Salmo salar
Protocol: As described in Example 1 below, hydrolysis experiments were performed with a diester of synthetic astaxanthin with omega-3 fatty acids and a crude enzyme preparation from salmon intestines in the same way as described before (NO-309386). The reaction products were analysed with regard to stereoisomer composition.
A diester of astaxanthin was prepared by conventional chemical synthesis from commercially obtained synthetic astaxanthin and an omega-3 fatty acid concentrate containing more than 90% omega-3 fatty acids, mainly EPA (eicosapentaenoic acid) and DHA (docosahexaenoic acid). The astaxanthin used had been prepared by chemical synthesis, and the distribution of the optical isomers (3R,3′R), meso and (3S,3′S) was 25.9:50.2:23.9, respectively, determined as described for the diol fraction.
The starting astaxanthin diester was treated with a freshly prepared enzyme mixture from the intestines of recently fed salmon (Salmo salar) for 48 hours. The pigment was then separated into three fractions by preparative thin-layer chromatography; a diol fraction with both hydroxyl groups hydrolysed, a monoester fraction with one hydroxyl group hydrolysed, and a remaining diester fraction. The astaxanthin in the diol fraction was converted into the corresponding diesters of (−)-camphanic acid by reaction with (−)-camphanoyl chloride, and the distribution of astaxanthin optical isomers were determined by high-performance liquid chromatography (HPLC) of the dicamphanates. The astaxanthin in the monoester fraction was first converted to diol in a hydrolysis reaction catalysed by the enzyme cholesterol esterase and subsequently treated with (−)-camphanic acid and analysed as described above. Attempts to convert the astaxanthin in the remaining diester fraction to diol using cholesterol esterase were not successful, as complete conversion was not obtained. The distribution of optical isomers of astaxanthin in the remaining diester fraction was therefore not determined.

salmonid fishes = conditions: cited from earlier work
[2] = pigment fraction, enzyme treatment 48 hours, starting diester = before treatment

SMILES: CC1=C(/C=C/C(C)=C/C=C/C(C)=C/C=C/C=C(C)/C=C/C=C(C)/C=C/C2=C(C)C(=O)[C@@H](O)CC2(C)C)C(C)(C)C[C@H](O)C1=O [Diol (after enzyme treatment)]
- predominant optical isomer of astaxanthin in the fraction (in words) ([1]; after enzyme treatment): almost exclusively the (3R,3′R)-configuration, with traces of the meso-form
- distribution of astaxanthin optical isomers: (3R,3′R) [1, 2]: 94.6
- distribution of astaxanthin optical isomers: meso [1, 2]: 5.4

SMILES: CCCCCCCCCCCCCCCC(=O)O[C@H]1CC(C)(C)C(/C=C/C(C)=C/C=C/C(C)=C/C=C/C=C(C)/C=C/C=C(C)/C=C/C2=C(C)C(=O)[C@@H](OC(=O)CCCCCCCCCCCCCCC)CC2(C)C)=C(C)C1=O [dipalmitate, of (3R,3′R)-astaxanthin]
- utilisation by salmonids (salmonid fishes; diet containing the ester form, compared with dipalmitate of (3S,3′S)-astaxanthin): better than dipalmitate of (3S,3′S)-astaxanthin

SMILES: CC1=C(/C=C/C(C)=C/C=C/C(C)=C/C=C/C=C(C)/C=C/C=C(C)/C=C/C2=C(C)C(=O)[C@@H](O)CC2(C)C)C(C)(C)C[C@H](O)C1=O [astaxanthin]
- absorption and deposition in the flesh of the optical isomers (salmonid fishes; in vivo): equally well absorbed and deposited
